Test results reported in patent US20250230193A1, “CYCLIC COMPOUND HAVING SELECTIVE KRAS INHIBITORY EFFECT ON HRAS AND NRAS” (CHUGAI SEIYAKU KABUSHIKI KAISHA, priority 2022, published 2025).
*1 amine or outer side, *2 acyl side, *3 side chain or, on linkers, in order; H or OH if unused. Where a SMILES comes first, the peptide text is derived from it. Bridges are numbered along the chain shown (N, C = ends). [ ]: non-standard residue; d: D form. The star is where a group is joined. hPhe(3-Cl-4-CF3) = N[C@@H](CCc1ccc(C(F)(F)F)c(Cl)c1)C(=O)O; NPrPhe(4-CF3) = CCCN[C@@H](Cc1ccc(C(F)(F)F)cc1)C(=O)O; NMeGly(cPent) = CN[C@H](C(=O)O)C1CCCC1; Pro(4,4-F2) = O=C(O)[C@@H]1CC(F)(F)CN1; X15 = O=C(CN(CC(F)F)[*:1])[*:2]; NMeD = CN[C@@H](CC(=O)O)C(=O)O; NMeL = CN[C@@H](CC(C)C)C(=O)O; Morpholide = C1CN(*)CCO1; NMeA = CN[C@@H](C)C(=O)O; Ac5c = NC1(C(=O)O)CCCC1; Aze = O=C(O)[C@@H]1CCN1; Sar = CNCC(=O)O

Key:
[1] = target: GDP-bound NRAS wild-type protein (Homo sapiens, UniProt P01111); experiment: Binding to NRAS by surface plasmon resonance (SPR), Single Cycle Kinetics; conditions: SPR
[2] = target: GDP-bound HRAS wild-type protein (Homo sapiens, UniProt P01112); experiment: Binding to HRAS by surface plasmon resonance (SPR), Single Cycle Kinetics; conditions: SPR
[3] = KD ratio, GDP-bound NRAS wild-type vs GDP-bound KRAS wild-type
[4] = KD ratio, GDP-bound HRAS wild-type vs GDP-bound KRAS wild-type

GDP-bound NRAS wild-type protein, sequence (P01111 whole entry): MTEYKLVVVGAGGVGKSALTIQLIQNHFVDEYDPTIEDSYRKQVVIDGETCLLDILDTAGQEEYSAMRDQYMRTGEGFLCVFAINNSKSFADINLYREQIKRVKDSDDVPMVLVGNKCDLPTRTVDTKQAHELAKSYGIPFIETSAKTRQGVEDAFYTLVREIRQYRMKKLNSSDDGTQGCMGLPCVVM
GDP-bound HRAS wild-type protein, sequence (P01112 whole entry): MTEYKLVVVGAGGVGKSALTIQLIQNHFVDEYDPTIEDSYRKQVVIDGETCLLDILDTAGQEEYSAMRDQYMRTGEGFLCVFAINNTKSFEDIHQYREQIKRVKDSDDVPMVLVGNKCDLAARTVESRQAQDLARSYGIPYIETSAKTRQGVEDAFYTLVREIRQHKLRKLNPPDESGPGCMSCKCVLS

## C=CC[C@H]1C(=O)N[C@@H]([C@@H](C)CC)C(=O)N(C)CC(=O)N(C)[C@H]2CCCCN(C2=O)[C@@H](Cc2ccc(C(F)(F)F)cc2)C(=O)N(C)CC(=O)N[C@@H](CCc2cc(F)c(C(F)(F)F)c(F)c2)C(=O)N2C[C@H](OCC)C[C@H]2C(=O)NC2(CCC2)C(=O)N(C)[C@@H](C2CCCC2)C(=O)N(C)[C@H](C(=O)N(C)C)CC(=O)N1C [PP0695]
[1]
  NRAS/KRAS (ratio of KD value with respect to GDP-bound NRAS wild-type protein to KD value with respect to KRAS): C (A compound having a KD ratio of 0.1 or more and less than 3 is denoted as C)
[2]
  HRAS/KRAS (ratio of KD value with respect to GDP-bound HRAS wild-type protein to KD value with respect to KRAS): C (A compound having a KD ratio of 0.1 or more and less than 3 is denoted as C)

## CCC[C@H]1C(=O)N[C@@H]([C@@H](C)CC)C(=O)N(C)CC(=O)N(C)[C@H]2C/C=C\CCN(C2=O)[C@@H](Cc2ccc(C(F)(F)F)cc2)C(=O)N(C)CC(=O)N[C@@H](CCc2cc(F)c(C(F)(F)F)c(F)c2)C(=O)N2C[C@H](OCC)C[C@H]2C(=O)NC2(CCC2)C(=O)N(C)[C@@H](C2CCCC2)C(=O)N(C)[C@H](C(=O)N(C)C)CC(=O)N1C [PP1110]
[1]; [3]
  NRAS/KRAS (ratio of KD value with respect to NRAS to KD value with respect to KRAS): A (a compound having 10 or more and less than 20 is denoted as A)
[2]; [4]
  HRAS/KRAS (ratio of KD value with respect to HRAS to KD value with respect to KRAS): B (a compound having 3 or more and less than 10 is denoted as B)

## CCO[C@@H]1C[C@H]2C(=O)NC3(CCC3)C(=O)N(C)[C@@H](C3CCCC3)C(=O)N(C)[C@H](C(=O)N(C)C)CC(=O)N(C)[C@@H](CC)C(=O)N[C@@H]([C@@H](C)CC)C(=O)N3CC[C@@H]3C(=O)N(C)[C@H]3C/C=C\CCN(C3=O)[C@@H](Cc3ccc(C(F)(F)F)cc3)C(=O)N(C)CC(=O)N[C@@H](CCc3cc(F)c(C(F)(F)F)c(F)c3)C(=O)N2C1 [PP1064]
[1]; [3]
  NRAS/KRAS (ratio of KD value with respect to NRAS to KD value with respect to KRAS): A (a compound having 10 or more and less than 20 is denoted as A)
[2]; [4]
  HRAS/KRAS (ratio of KD value with respect to HRAS to KD value with respect to KRAS): A (a compound having 10 or more and less than 20 is denoted as A)

## CC[C@H](C)[C@@H]1NC(=O)[C@@H]2CCCc3ccc(cc3)C[C@@H](C(=O)N(C)CC(=O)N[C@@H](CCc3ccc(C(F)(F)F)c(OC)c3)C(=O)N3C[C@H](OC(C)C)C[C@H]3C(=O)NC3(CC(C)(C)C3)C(=O)N(C)[C@@H](C3CCCC3)C(=O)N(C)[C@H](C(=O)N(C)CC)CC(=O)N2C)N2CC/C=C\C[C@@H](C2=O)N(C)C(=O)CN(C)C1=O [PP3084]
[1]; GDP-bound wild-type proteins
  NRAS/KRAS (ratio of KD value with respect to GDP-bound NRAS wild-type protein to KD value with respect to KRAS): A (a compound having 10 or more and less than 20 is denoted as A)
[2]; GDP-bound wild-type proteins
  HRAS/KRAS (ratio of KD value with respect to GDP-bound HRAS wild-type protein to KD value with respect to KRAS): B (a compound having 3 or more and less than 10 is denoted as B)

## CC[C@H](C)[C@@H]1NC(=O)[C@H](CC2CC2)N(C)C(=O)C[C@@H](C(=O)N(C)C)N(C)C(=O)[C@H](C2CCCC2)N(C)C(=O)C2(CCC2)NC(=O)[C@@H]2C[C@H](C)CN2C(=O)[C@H](CCc2ccc(C(F)(F)F)c(OC)c2)NC(=O)CN(C)C(=O)[C@H](Cc2ccc(C)cc2)N2CC/C=C\C[C@@H](C2=O)N(C)C(=O)CN(C)C1=O [PP1861]
[1]; [3]
  NRAS/KRAS (ratio of KD value for NRAS to KD value for KRAS): A (a compound having 10 or more and less than 20 is denoted as A)
[2]; [4]
  HRAS/KRAS (ratio of KD value for HRAS to KD value for KRAS): B (a compound having 3 or more and less than 10 is denoted as B)

## CCCN1C(=O)CN(C)C(=O)CN(CC(F)F)C(=O)[C@H]([C@@H](C)CC)NC(=O)[C@H](CC(C)C)N(C)C(=O)C[C@@H](C(=O)N2CCOCC2)N(C)C(=O)[C@H](C2CCCC2)N(C)C(=O)C2(CCCC2)NC(=O)[C@@H]2CCCN2C(=O)[C@H](CCc2ccc(C(F)(F)F)c(Cl)c2)NC(=O)CN(C)C(=O)[C@@H]1Cc1ccc(C(F)(F)F)cc1 [PP0752] ([NMeL]I[X15][Sar][NPrPhe(4-CF3)][Sar][hPhe(3-Cl-4-CF3)]P[Ac5c][NMeGly(cPent)][NMeD]-Morpholide; lactam N-11)
[1]
  NRAS/KRAS (ratio of KD value with respect to GDP-bound NRAS wild-type protein to KD value with respect to KRAS): B (a compound having 3 or more and less than 10 is denoted as B)
[2]
  HRAS/KRAS (ratio of KD value with respect to GDP-bound HRAS wild-type protein to KD value with respect to KRAS): B (a compound having 3 or more and less than 10 is denoted as B)

## CCCN1C(=O)[C@@H]2CCN2C(=O)[C@H](C)N(C)C(=O)[C@H]([C@@H](C)CC)NC(=O)[C@H](CC(C)C)N(C)C(=O)C[C@@H](C(=O)N(C)C)N(C)C(=O)[C@H](C2CCCC2)N(C)C(=O)C2(CCCC2)NC(=O)[C@@H]2CC(F)(F)CN2C(=O)[C@H](CCc2ccc(C(F)(F)F)c(Cl)c2)NC(=O)CN(C)C(=O)[C@@H]1Cc1ccc(C(F)(F)F)cc1 [PP0436] ([NMeL]I[NMeA][Aze][NPrPhe(4-CF3)][Sar][hPhe(3-Cl-4-CF3)][Pro(4,4-F2)][Ac5c][NMeGly(cPent)][NMeD]-NMe2; lactam N-11)
[1]
  NRAS/KRAS (ratio of KD value with respect to GDP-bound NRAS wild-type protein to KD value with respect to KRAS): C (A compound having a KD ratio of 0.1 or more and less than 3 is denoted as C)
[2]
  HRAS/KRAS (ratio of KD value with respect to GDP-bound HRAS wild-type protein to KD value with respect to KRAS): C (A compound having a KD ratio of 0.1 or more and less than 3 is denoted as C)
